From US9586986B2, “Substituted 7-deazapurine ribonucleosides for therapeutic uses” (Institute of Organic Chemistry and Biochemistry ASCR, v.v.i., priority 2014, dated 2017)

What was measured:
Type in all cases: cell-based
[1] = system: CEM-DNR-bulk; test: Cytostatic/cytotoxic MTT assay, CEM-DNR-bulk; details: Homo sapiens; daunorubicin resistant subline, 72 h; read-out: MTT, IC50 CEM-DNR-bulk
Outline: (§1)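 Human cancer lines, including daunorubicin-resistant CEM-DNR (mrp-1/mdr-1 overexpressing) and paclitaxel-resistant K562-TAX (mdr-1), seeded 25,000-30,000 cells/well, pre-incubated 24 h, then treated in duplicate with four-fold dilutions for 72 h at 37° C, 5% CO2. MTT read-out at 540 nm; IC50 from dose-response curves.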

[2] = system: K562; test: Cytostatic/cytotoxic MTT assay, K562; details: Homo sapiens, K562; 72 h incubation; read-out: MTT, IC50 K562
Outline: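 Growth inhibition is measured by MTT metabolic staining after a 3-day compound treatment at 37 °C, 5% CO2. Formazan is dissolved overnight in 10% aqueous SDS, pH 5.5, and read at 540 nm.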

[3] = system: K562-TAX; test: Cytostatic/cytotoxic MTT assay, K562-TAX; details: Homo sapiens, paclitaxel resistant subline, 72 h, read-out: MTT, IC50 K562-TAX
Outline: as §1

[4] = system: HCT116; test: Cytostatic/cytotoxic MTT assay, HCT116; details: Homo sapiens, HCT-116; 72 h incubation; read-out: MTT, IC50 HCT116
Outline: as §1

[5] = system: HCT116p53-/-; test: Cytostatic/cytotoxic MTT assay, HCT116p53-/-; details: Homo sapiens, HCT-116; 72 h incubation; read-out: MTT, IC50 HCT116 p53-/-
Outline: as §1

[6] = system: BJ; test: Cytostatic/cytotoxic MTT assay, BJ fibroblasts; details: Homo sapiens, non-malignant fibroblasts, 72 h, read-out: MTT, IC50 BJ
Outline: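 Optical density at 540 nm of SDS-dissolved formazan gives the read-out, with IC50 derived from dose-response curves. Cells (25,000-30,000/well) are treated for 72 h at 37 °C with four-fold compound dilutions, tested in duplicate, then stained with MTT for 1-4 h.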

[7] = system: HeLa S3; test: XTT cytotoxicity assay, HeLa S3; details: Homo sapiens, HeLa S3; 72 h incubation; read-out: XTT, IC50 HeLa S3
Outline: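 Cells seeded at 10,000 per well, compounds added after 24 h and incubated 72 h, then XTT (with N-methyl dibenzopyrazine methyl sulfate) for 2 h; absorbance at 495 nm. IC50 by non-linear regression.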

SMILES | IC50 [1] | IC50 [2] | IC50 [3] | IC50 [4] | IC50 [5] | IC50 [6] | IC50 [7]
Cc1ncnc2c1c(-c1ccoc1)cn2[C@@H]1O[C@H](CO)[C@@H](O)[C@H]1O [Compound 5b, 5-(Furan-3-yl)-4-methyl-7-(β-D-ribofuranosyl)-7H-pyrrolo[2,3-d]pyrimidine] | > 20 µM | > 20 µM | > 20 µM | > 20 µM | > 20 µM | 89.2 µM | > 20 µM
CN(C)c1ncnc2c1c(-c1cccs1)cn2[C@@H]1O[C@H](CO)[C@@H](O)[C@H]1O [Compound 4c, 4-Dimethylamino-7-(β-D-ribofuranosyl)-5-(thiophen-2-yl)-7H-pyrrolo[2,3-d]pyrimidine] | > 20 µM | > 20 µM | > 20 µM | > 20 µM | > 20 µM | > 100 µM | > 20 µM
CSc1ncnc2c1c(-c1cc3ccccc3o1)cn2[C@@H]1O[C@H](CO)[C@@H](O)[C@H]1O [Compound 2f, 5-(Benzofuran-2-yl)-4-methylsulfanyl-7-(β-D-ribofuranosyl)-7H-pyrrolo[2,3-d]pyrimidine] | > 20 µM | 17.2 µM | > 20 µM | > 20 µM | > 20 µM | 67.2 µM | 1.93 µM
COc1ncnc2c1c(-c1cccs1)cn2[C@@H]1O[C@H](CO)[C@@H](O)[C@H]1O [Compound 1c, 4-Methoxy-7-(β-D-ribofuranosyl)-5-(thiophen-2-yl)-7H-pyrrolo[2,3-d]pyrimidine] | 12.1 µM | 0.07 µM | 6.2 µM | 0.08 µM | 0.44 µM | 62.8 µM | 1.76 µM
CSc1ncnc2c1c(-c1ccccc1)cn2[C@@H]1O[C@H](CO)[C@@H](O)[C@H]1O [Compound 2e, 4-Methylsulfanyl-5-phenyl-7-(β-D-ribofuranosyl)-7H-pyrrolo[2,3-d]pyrimidine] | > 20 µM | > 20 µM | > 20 µM | > 20 µM | > 20 µM | > 100 µM | > 20 µM
Cc1ncnc2c1c(-c1ccsc1)cn2[C@@H]1O[C@H](CO)[C@@H](O)[C@H]1O [Compound 5d, 4-Methyl-7-(β-D-ribofuranosyl)-5-(thiophen-3-yl)-7H-pyrrolo[2,3-d]pyrimidine] | 8.56 µM | 0.32 µM | 5.55 µM | 0.46 µM | 1.43 µM | 96.9 µM | 14.3 µM
COc1ncnc2c1c(-c1ccsc1)cn2[C@@H]1O[C@H](CO)[C@@H](O)[C@H]1O [Compound 1d, 4-Methoxy-7-(β-D-ribofuranosyl)-5-(thiophen-3-yl)-7H-pyrrolo[2,3-d]pyrimidine] | 7.64 µM | 0.09 µM | 3.45 µM | 0.12 µM | 0.14 µM | 64.3 µM | 3.35 µM
CNc1ncnc2c1c(-c1ccccc1)cn2[C@@H]1O[C@H](CO)[C@@H](O)[C@H]1O [Compound 3e, 4-Methylamino-5-phenyl-7-(β-D-ribofuranosyl)-7H-pyrrolo[2,3-d]pyrimidine] | > 20 µM | > 20 µM | > 20 µM | > 20 µM | > 100 µM | > 100 µM | > 20 µM
COc1ncnc2c1c(-c1ccccc1)cn2[C@@H]1O[C@H](CO)[C@@H](O)[C@H]1O [Compound 1e, 4-Methoxy-5-phenyl-7-(β-D-ribofuranosyl)-7H-pyrrolo[2,3-d]pyrimidine] | > 20 µM | > 20 µM | > 20 µM | > 20 µM | > 20 µM | > 100 µM | > 20 µM
C#Cc1cn([C@@H]2O[C@H](CO)[C@@H](O)[C@H]2O)c2ncnc(SC)c12 [Compound 2g, 5-Ethynyl-4-methylsulfanyl-7-(β-D-ribofuranosyl)-7H-pyrrolo[2,3-d]pyrimidine] | 0.11 µM | 0.03 µM | 0.07 µM | 0.03 µM | 0.09 µM | 68.6 µM | 0.11 µM
CSc1ncnc2c1c(I)cn2[C@@H]1O[C@H](CO)[C@@H](O)[C@H]1O [Compound 2h, 5-Iodo-4-methylsulfanyl-7-(β-D-ribofuranosyl)-7H-pyrrolo[2,3-d]pyrimidine] | > 20 µM | 10.5 µM | 7.73 µM | > 20 µM | > 20 µM | 86.1 µM | 0.25 µM
CN(C)c1ncnc2c1c(-c1cc3ccccc3o1)cn2[C@@H]1O[C@H](CO)[C@@H](O)[C@H]1O [Compound 4f, 5-(Benzofuran-2-yl)-4-dimethylamino-7-(β-D-ribofuranosyl)-7H-pyrrolo[2,3-d]pyrimidine] | > 20 µM | > 20 µM | > 20 µM | > 20 µM | > 20 µM | > 100 µM | > 20 µM
CN(C)c1ncnc2c1c(-c1ccco1)cn2[C@@H]1O[C@H](CO)[C@@H](O)[C@H]1O [Compound 4a, 4-Dimethylamino-5-(furan-2-yl)-7-(β-D-ribofuranosyl)-7H-pyrrolo[2,3-d]pyrimidine] | 3.14 µM | 0.15 µM | 1.28 µM | 0.25 µM | 0.32 µM | > 100 µM | 1.19 µM
Cc1ncnc2c1c(-c1ccccc1)cn2[C@@H]1O[C@H](CO)[C@@H](O)[C@H]1O [Compound 5e, 4-Methyl-5-phenyl-7-(β-D-ribofuranosyl)-7H-pyrrolo[2,3-d]pyrimidine] | > 20 µM | > 20 µM | > 20 µM | > 100 µM | 95.3 µM | > 100 µM | > 20 µM
C#Cc1cn([C@@H]2O[C@H](CO)[C@@H](O)[C@H]2O)c2ncnc(N(C)C)c12 [Compound 4g, 4-Dimethylamino-5-ethynyl-7-(β-D-ribofuranosyl)-7H-pyrrolo[2,3-d]pyrimidine] | 0.24 µM | 0.11 µM | 0.26 µM | 0.18 µM | 0.29 µM | 0.41 µM | 0.81 µM
